Columns and labels:
[1] = In vitro metabolism with mouse S9 fraction; format: in vitro ADME
Protocol: In vitro metabolism of NUCC-176242 and NUCC-176248 were tested using mouse liver microsomes and a mouse S9 fraction. (See FIG. 9).
In vitro metabolism of NUCC-176242 and NUCC-176248 were tested using mouse liver microsomes and a mouse S9 fraction.

[2] = Pharmacokinetics in mice after IV dosing; format: in vivo; conditions: 5 mg/kg intravenously
Protocol: The pharmacokinetics of NUCC-176242 and NUCC-176248 were studied in mice by administering a dose of 5 mg/kg intravenously and measuring the plasma concentration versus time. (See FIG. 10).
The pharmacokinetics of NUCC-176242 and NUCC-176248 were studied in mice by administering a dose of 5 mg/kg intravenously and measuring the plasma concentration versus time.

[3] = Potency code of Table 2 (assay not stated)
[4] = test system: PC3 prostate cancer cell line; assay: Proliferation assay of PC3 cells (MTS); format: cell-based; conditions: Myc dependent cell line
Protocol: PC3 prostate cancer cell line with high Myc level and PC12 pheochromocytoma tumor cell line with non functional Max protein, which is not dependent on Myc-Max complex, were phased from ATCC. Cells were plated in 96 well plate at 1000 cells per well, and Myc inhibitor 361 at various concentrations was added to the cells next day. After 3 days of treatment, fresh medium with 361 were added again, and cell viability was measured by MTS assay at day 5 after the treatment. (See FIG. 11).

MycCap tumor [5] = assay: MycCap FVB allograft model, combination with anti-PD-1 immunotherapy; format: in vivo, FVB mice; conditions: combination with anti-PD-1 antibody
Protocol: MycCap FVB allograft model was treated with 361 (50 mg/kg) for two days, following by two days of anti-PD-1 antibody (100 ug/day), and kept this 4-day treatment cycle for 4 cycles. (See FIG. 16).

[6] = test system: MYC transcriptional activity (c-Myc E-box-luciferase reporter, MycCap cells); assay: MYC E-box luciferase reporter assay; format: cell-based; conditions: 4 hours of treatment
Summary of the method: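 MycCap cells stably carrying c-Myc E-box-luciferase reporter, with CMV-luciferase MycCap-luc as counterpart, seeded 10000 cells/well and treated next day with serial compound dilutions. Luminescence read at 4 h immediately after adding 150 μg/ml luciferin.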

MycCap tumor [7] = assay: MycCap FVB allograft model; format: in vivo, FVB mice; conditions: mouse prostate cancer allograft, intra-peritoneally
Protocol: FVB mice were inoculated with 1×10^6 of MycCap cells in 100 ul of matrigel subcutaneously on both flanks of the mice. When tumor size reached average size of 150 mm^3, mice were randomized based on tumor volume to 2 groups. Mice were administered with 50 mg/kg of 361 or vehicle(Veh) twice daily intra-peritoneally for two days. The treatment was suspended for 10 day, and initiated the treatment with a lower dose […] daily for another 9 days. Tumor size was measured twice a week during the experiment. (See FIG. 15).

With CCc1ccc(Oc2c(-c3ccc(OCc4ccc(Cl)cc4)cc3O)n[nH]c2C(F)(F)F)cc1 [NUCC-0176242] the “metabolism by mouse S9 fraction” value [1] was “significantly metabolism by the mouse S9 fraction versus NUCC-176248”, the “in vivo metabolism (plasma concentration versus time)” value [2] was “correlated well with the observed in vitro metabolism” and the Potency code [3] was “++ (30-40 ++)”.

In the case of Cn1nc(C(F)(F)F)cc1-c1ccc(OCc2ccc(Cl)cc2)c(-c2cc(C(F)(F)F)cc(C(F)(F)F)c2)c1O [compound 361], the “proliferation of PC3” value [4] is reported as “specifically inhibits proliferation”, the tumor progression (MycCap tumor [5]) is reported as “significantly blocks tumor progression” and the c-Myc transcription activity [6] is reported as “inhibits c-Myc transcription activity as an early event before affecting cell viability”. For the same molecule, the tumor volume (MycCap tumor [7]) was “reduces tumor volume”.

— US20200392116A1, “SUBSTITUTED HETEROCYCLES AS c-MYC TARGETING AGENTS” (NORTHWESTERN UNIVERSITY, priority 2019, published 2020)
